Data set [1] has as its target T1, N-terminal Nano Luciferase/GAK fusion (NL-GAK) in HEK293 cells (Homo sapiens, UniProt O14976).
T1 sequence (O14976 1-1311): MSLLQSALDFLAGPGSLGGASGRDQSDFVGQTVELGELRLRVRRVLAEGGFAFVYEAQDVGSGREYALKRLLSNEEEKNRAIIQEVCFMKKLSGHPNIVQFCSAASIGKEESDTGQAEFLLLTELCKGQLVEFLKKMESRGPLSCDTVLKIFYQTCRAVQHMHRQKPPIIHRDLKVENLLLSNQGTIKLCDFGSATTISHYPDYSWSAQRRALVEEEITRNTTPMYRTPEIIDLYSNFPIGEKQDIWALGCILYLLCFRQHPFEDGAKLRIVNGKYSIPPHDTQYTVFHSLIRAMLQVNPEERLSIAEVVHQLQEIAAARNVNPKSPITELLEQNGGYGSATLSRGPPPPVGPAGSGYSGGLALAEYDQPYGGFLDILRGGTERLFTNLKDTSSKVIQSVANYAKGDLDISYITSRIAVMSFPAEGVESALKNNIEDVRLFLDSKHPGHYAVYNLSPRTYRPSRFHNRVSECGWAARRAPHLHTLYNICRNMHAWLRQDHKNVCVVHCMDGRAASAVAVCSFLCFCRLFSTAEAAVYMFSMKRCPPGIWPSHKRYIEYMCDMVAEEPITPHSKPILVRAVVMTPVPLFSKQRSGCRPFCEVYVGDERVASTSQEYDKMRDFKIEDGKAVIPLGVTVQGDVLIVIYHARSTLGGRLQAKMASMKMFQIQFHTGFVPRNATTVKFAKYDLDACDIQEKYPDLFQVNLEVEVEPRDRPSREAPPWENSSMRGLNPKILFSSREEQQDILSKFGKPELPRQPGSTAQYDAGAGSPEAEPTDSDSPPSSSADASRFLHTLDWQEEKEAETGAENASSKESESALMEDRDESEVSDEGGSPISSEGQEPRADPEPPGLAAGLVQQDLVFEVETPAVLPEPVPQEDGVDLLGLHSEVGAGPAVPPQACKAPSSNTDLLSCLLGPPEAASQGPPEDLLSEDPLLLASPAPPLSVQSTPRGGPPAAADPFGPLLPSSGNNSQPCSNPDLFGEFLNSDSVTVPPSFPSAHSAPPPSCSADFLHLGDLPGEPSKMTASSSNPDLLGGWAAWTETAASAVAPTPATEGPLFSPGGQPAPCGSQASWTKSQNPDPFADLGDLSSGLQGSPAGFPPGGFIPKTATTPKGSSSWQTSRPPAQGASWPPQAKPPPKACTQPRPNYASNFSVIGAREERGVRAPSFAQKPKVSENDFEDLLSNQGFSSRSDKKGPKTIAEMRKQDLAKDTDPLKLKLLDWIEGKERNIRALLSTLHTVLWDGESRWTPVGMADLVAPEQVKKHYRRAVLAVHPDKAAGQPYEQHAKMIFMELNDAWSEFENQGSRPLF
Briefly: GAK nanoBRET cellular target engagement assay. The settings on record: for IC50: NanoBRET GAK IC50, HEK293 cells, 8-point dose response, average of 2 experiments. (In general: In BRET a luciferase serves as donor, and the signal depends on an acceptor being close.)

In data set [2] the target is STK16 kinase domain (13-305) (Homo sapiens, UniProt O75716). Briefly: TR-FRET ligand binding displacement assay, STK16.
In data set [3] the target is BMP2K kinase domain (38-345) (Homo sapiens, UniProt Q9NSY1). Briefly: TR-FRET ligand binding displacement assay, BMP2K. A general note: In TR-FRET formats the signal depends on donor and acceptor labels being close together.
Data set [4] has as its target AAK1 kinase domain (31-396) (Homo sapiens, UniProt Q2M2I8). Briefly: TR-FRET ligand binding displacement assay, AAK1.
The target of data set [5] is T2, GAK kinase domain (12-347) (Homo sapiens, UniProt O14976).
T2 sequence (O14976 12-347): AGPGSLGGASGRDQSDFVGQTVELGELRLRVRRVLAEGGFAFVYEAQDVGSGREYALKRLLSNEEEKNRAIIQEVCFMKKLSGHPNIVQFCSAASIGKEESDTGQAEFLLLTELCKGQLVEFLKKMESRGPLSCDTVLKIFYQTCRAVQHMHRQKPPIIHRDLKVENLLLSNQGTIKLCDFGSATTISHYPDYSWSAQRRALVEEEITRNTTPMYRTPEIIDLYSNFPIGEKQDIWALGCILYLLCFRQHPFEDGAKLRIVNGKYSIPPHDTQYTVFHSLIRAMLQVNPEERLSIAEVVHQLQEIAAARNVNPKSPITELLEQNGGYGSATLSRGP
Briefly: TR-FRET ligand binding displacement assay, GAK. The settings on record: for NAK selectivity (ratio of GAK Ki and Ki of nearest NAK family member): selectivity against the nearest NAK family member.

The test system of data set [6] is kinases in SUM159 cell lysate (>240 protein kinases profiled). Briefly: Multiplexed inhibitor beads / mass spectrometry. Type of data set: binding. The settings on record: SUM159 cell lysate.
In data set [7] the target is T3, kinases in SUM159 cell lysate (>240 protein kinases profiled) (Homo sapiens, UniProt O14976).
T3 sequence (O14976 1-1311): T1 sequence (O14976 1-1311)
Briefly: Multiplexed inhibitor beads / mass spectrometry. Type of data set: binding. The conditions noted are these: SUM159 lysate, highest concentration (10 nM), 30 minutes on ice.

Data set [8] concerns GAK. The conditions noted are these: cited from earlier work.

Several values for one entry are separate records, joined by “and”; a condition that tells them apart may be missing. Equal entries are not always repeated.

Chain of AAK1 kinase domain (31-396) (Q2M2I8 31-396): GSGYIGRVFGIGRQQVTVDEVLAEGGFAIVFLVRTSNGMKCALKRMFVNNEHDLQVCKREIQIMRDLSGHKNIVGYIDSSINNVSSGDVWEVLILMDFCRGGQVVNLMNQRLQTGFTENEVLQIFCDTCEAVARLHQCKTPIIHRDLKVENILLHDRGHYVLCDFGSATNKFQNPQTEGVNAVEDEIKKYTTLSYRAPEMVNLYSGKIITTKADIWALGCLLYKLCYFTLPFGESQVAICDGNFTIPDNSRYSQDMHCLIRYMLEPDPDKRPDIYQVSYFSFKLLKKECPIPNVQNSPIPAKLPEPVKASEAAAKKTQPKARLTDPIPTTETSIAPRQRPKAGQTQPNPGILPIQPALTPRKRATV
Chain of STK16 kinase domain (13-305) (O75716 13-305): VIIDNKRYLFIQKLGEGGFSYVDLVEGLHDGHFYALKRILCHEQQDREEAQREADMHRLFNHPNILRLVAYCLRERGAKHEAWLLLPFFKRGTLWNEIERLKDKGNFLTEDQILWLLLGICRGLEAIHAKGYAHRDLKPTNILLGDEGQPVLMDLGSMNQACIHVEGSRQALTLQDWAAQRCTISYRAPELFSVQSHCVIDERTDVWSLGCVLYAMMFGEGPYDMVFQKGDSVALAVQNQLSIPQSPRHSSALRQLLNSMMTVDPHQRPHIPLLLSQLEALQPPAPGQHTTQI
Chain of BMP2K kinase domain (38-345) (Q9NSY1 38-345): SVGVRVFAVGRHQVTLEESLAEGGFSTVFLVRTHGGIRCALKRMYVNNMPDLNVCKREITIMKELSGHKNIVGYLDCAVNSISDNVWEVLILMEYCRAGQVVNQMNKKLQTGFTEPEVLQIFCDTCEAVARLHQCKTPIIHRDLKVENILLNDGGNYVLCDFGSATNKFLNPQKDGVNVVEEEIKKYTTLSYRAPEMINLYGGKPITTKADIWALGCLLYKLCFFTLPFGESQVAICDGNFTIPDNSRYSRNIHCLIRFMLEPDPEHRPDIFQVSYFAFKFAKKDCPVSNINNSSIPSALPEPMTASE

For orientation: IC50 means the concentration that inhibits the measured activity by half. A higher IC50 goes with lower potency. One may read the Ki as a dissociation constant, usually derived from enzyme kinetics or from competition with a known ligand. Low readings indicate higher affinity, high ones lower affinity. In data set [1], `COc1cc(Nc2ccnc3ccccc23)cc(OC)c1OC` [Compound 41, N-(3,4,5-Trimethoxyphenyl)quinolin-4-amine] registered an IC50 of 780 nM. The “fold decrease in cellular potency” value in data set [1] (nanoBRET, relative to 1) is given as 4 fold. In addition, the Ki in data set [2], in data set [3] and in data set [4] was more than 100 µM each time. For the same compound, the “fold drop in GAK potency” value in data set [5] (relative to 1) worked out at 10 fold. In addition, the “NAK selectivity (ratio of GAK Ki and Ki of nearest NAK family member)” value in data set [5] was more than 2500.
In turn, `COc1cc(Nc2ccnc3cc(F)cc(F)c23)cc(OC)c1OC` [Compound 44, 5,7-Difluoro-N-(3,4,5-trimethoxyphenyl)quinolin-4-amine] came in with an IC50 in data set [1] of 4400 nM. For the same compound, the Ki is more than 100 µM in data set [2], more than 100 µM in data set [3], more than 100 µM in data set [4] and 140 nM in data set [5]. For the same compound, the “NAK selectivity (ratio of GAK Ki and Ki of nearest NAK family member)” value in data set [5] is recorded as more than 720.
In data set [1], `COc1cc(Nc2ccnc3ccc(C(C)(C)C)cc23)cc(OC)c1OC` [Compound 45, 6-(tert-Butyl)-N-(3,4,5-trimethoxyphenyl)quinolin-4-amine] yielded an IC50 of 330 nM. The Ki in data set [3] was more than 100 µM; in data set [4], more than 100 µM; in data set [5] it was 8.1 nM.
In the case of `COc1cc(Nc2ccnc3ccc(C#N)cc23)cc(OC)c1OC` [Compound 46, 4-((3,4,5-Trimethoxyphenyl)amino)quinoline-6-carbonitrile], the IC50 in data set [1] is ~350 nM and 350 nM.
As for `COc1cc2nccc(Nc3cc(OC)c(OC)c(OC)c3)c2cc1OC` [Compound 49, 6,7-Dimethoxy-N-(3,4,5-trimethoxyphenyl)quinolin-4-amine], the “fold cellular potency increase” value in data set [1] (nanoBRET, over the single methoxy substitutions 48 & 50) was 14–17 fold. Besides, in data set [6], the “kinases bound in MIB/MS (kinome selectivity)” value is “binding to only GAK and RIPK2”. The “GAK depletion in MIB/MS” value in data set [7] is recorded as approximately 10 fold. The compound further had a Ki in data set [2] of more than 100 µM.
Take `COc1cc(Nc2c(C#N)cnc3cc(OCCCN4CCN(C)CC4)c(OC)cc23)c(Cl)cc1Cl` [bosutinib]: in data set [8], the “off target activity on GAK, potency” value is listed as “low nanomolar range”.
For `Cc1nc(Nc2ncc(C(=O)Nc3c(C)cccc3Cl)s2)cc(N2CCN(CCO)CC2)n1` [dasatinib], the “off target activity on GAK, potency” value in data set [8] is “low nanomolar range”.
As for `C#Cc1cccc(Nc2ncnc3cc(OCCOC)c(OCCOC)cc23)c1` [erlotinib], in data set [8], the “off target activity on GAK, potency” value is recorded as “low nanomolar range”.
For the compound `COc1cc2ncnc(Nc3ccc(F)c(Cl)c3)c2cc1OCCCN1CCOCC1` [gefitinib], in data set [8], the “off target activity on GAK, potency” value is listed as “low nanomolar range”.

The record behind these values is PMC5914168 (ChemMedChem, 2017).
